According to ChEMBL document CHEMBL6083240, “Design, synthesis and biological evaluation of arylpropylamine derivatives as potential multi-target antidepressants” (Bioorg Med Chem, 2024):
Activity calls are given as the source filed them. No cut-off for these calls is given here.

Tests used:
[1] = target: Sodium-dependent serotonin transporter (Rattus norvegicus, UniProt P31652); experiment: Displacement of [3H]-paroxetine from SERT in rat cerebral cortex incubated for 10 mins by liquid scintillation counting method; assay type: tissue-based
Transporter [2] = target: T1, Transporter (Rattus norvegicus, UniProt Q63380); experiment: Displacement of [3H]-nisoxetine from NET in rat hippocampal membrane incubated for 8 hrs by liquid scintillation counting method; assay type: cell membranes, Hippocampus
[3] = Acute toxicity in po dosed Sprague-Dawley rat assessed as mortality rate measured after 24 hrs; assay type: organism-based; details: in vivo
[4] = target: 5-hydroxytryptamine receptor 2A (Rattus norvegicus, UniProt P14842); experiment: Displacement of [3H]-ketanserin from 5-HT2A in rat cerebral cortex incubated for 15 mins by liquid scintillation counting method; assay type: tissue-based
[5] = target: T2, 5-hydroxytryptamine receptor 2C (Rattus norvegicus, UniProt P08909); experiment: Displacement of [3H]-mesulergine from 5-HT2C in rat cerebral cortex incubated for 15 mins by liquid scintillation counting method; assay type: tissue-based
T2 sequence (P08909 whole entry): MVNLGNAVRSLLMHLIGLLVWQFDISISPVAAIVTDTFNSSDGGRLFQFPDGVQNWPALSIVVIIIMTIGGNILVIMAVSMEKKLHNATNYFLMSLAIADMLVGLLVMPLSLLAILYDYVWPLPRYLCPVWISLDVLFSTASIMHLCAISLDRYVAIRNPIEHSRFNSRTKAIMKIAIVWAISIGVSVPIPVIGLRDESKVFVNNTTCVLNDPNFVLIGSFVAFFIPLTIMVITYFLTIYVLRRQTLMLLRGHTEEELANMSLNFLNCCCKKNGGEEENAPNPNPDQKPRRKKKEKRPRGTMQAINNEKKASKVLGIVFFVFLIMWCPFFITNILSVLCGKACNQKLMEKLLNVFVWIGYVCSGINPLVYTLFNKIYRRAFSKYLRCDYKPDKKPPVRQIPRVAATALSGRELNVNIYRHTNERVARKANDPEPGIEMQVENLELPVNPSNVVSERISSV

[6] = target: T3, Alpha-1A adrenergic receptor (Rattus norvegicus, UniProt P43140); experiment: Displacement of [3H]-prazosin from adrenergic alpha-1 receptor in rat cerebral cortex incubated for 60 mins by liquid scintillation counting method; assay type: toxicity, tissue-based
T3 sequence (P43140 whole entry): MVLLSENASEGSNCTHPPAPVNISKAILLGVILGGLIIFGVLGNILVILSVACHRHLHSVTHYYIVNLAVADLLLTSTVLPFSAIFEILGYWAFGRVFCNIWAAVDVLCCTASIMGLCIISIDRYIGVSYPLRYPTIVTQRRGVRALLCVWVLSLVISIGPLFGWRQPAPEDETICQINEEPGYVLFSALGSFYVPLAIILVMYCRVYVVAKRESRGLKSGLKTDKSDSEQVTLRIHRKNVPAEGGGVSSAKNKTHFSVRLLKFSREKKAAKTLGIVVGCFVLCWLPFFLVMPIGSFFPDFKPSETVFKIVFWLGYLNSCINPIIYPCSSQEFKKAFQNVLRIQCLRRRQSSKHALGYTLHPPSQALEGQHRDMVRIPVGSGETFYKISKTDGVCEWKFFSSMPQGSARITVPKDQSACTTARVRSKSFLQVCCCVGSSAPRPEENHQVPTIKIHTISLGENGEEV

histamine H1 receptor = experiment: Displacement of [3H]-pyrilamine from H1 receptor in guinea pig cerebellum membrane incubated for 60 mins by liquid scintillation counting method; assay type: toxicity, cell membranes, Cavia porcellus; details: probe [3H]-pyrilamine
Mus musculus [7] = experiment: Antidepressant activity in IG dosed Kunming mouse assessed as decrease in immobility time by measuring minimal effective dose by forced swimming test; assay type: functional
Mus musculus [8] = experiment: Antidepressant activity in IG dosed Kunming mouse assessed as decrease in immobility time by measuring minimal effective dose by tail suspension test; assay type: functional
[9] = In vivo inhibition of 5-HT2A in po dosed DOI-induced Kunming mouse assessed as reduction in head twitch response pretreated for 60 mins followed by DOI induction and measured for 20 mins; assay type: functional; details: 1.333 h, time 80 min
Mus musculus [10] = experiment: Antidepressant activity in Kunming mouse chronic unpredictable mild stress model assessed as increase in sucrose preference at 20 mg/kg, IG measured after 1 to 3 weeks; assay type: functional, organism-based; details: time 1-3 weeks
[11] = target: Voltage-gated inwardly rectifying potassium channel KCNH2 (Homo sapiens, UniProt Q12809); experiment: Inhibition of human ERG expressed in HEK293 cells by whole-cell patch clamp method; assay type: toxicity, cell-based
Transporter [12] = target: T1, Transporter; experiment: Binding affinity to rat NET
[13] = target: T4, 5-hydroxytryptamine receptor 2C (Homo sapiens) (UniProt P28335); experiment: Antagonist activity at 5-HT2C in HEK293 cells at 10 uM incubated for 60 mins by FLIPR assay relative to control; assay type: cell-based; design: scale not given: the % may be the effect or the level left; details: filed as antagonist
T4 sequence (whole entry): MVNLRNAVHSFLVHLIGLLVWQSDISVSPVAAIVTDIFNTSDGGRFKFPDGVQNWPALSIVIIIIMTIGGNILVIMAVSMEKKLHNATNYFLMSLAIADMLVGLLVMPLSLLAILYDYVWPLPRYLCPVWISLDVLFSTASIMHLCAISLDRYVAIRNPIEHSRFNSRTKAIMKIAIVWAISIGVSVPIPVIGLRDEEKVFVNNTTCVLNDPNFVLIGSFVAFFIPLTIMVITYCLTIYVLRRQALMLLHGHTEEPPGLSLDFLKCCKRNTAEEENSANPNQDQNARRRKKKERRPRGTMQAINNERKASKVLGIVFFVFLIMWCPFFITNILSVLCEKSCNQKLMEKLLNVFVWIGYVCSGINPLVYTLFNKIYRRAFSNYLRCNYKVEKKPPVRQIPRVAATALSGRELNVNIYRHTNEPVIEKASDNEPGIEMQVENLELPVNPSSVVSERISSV

[14] = target: 5-hydroxytryptamine receptor 2C (Homo sapiens, UniProt P28335); experiment: Antagonist activity at 5-HT2C in HEK293 cells incubated for 60 mins by FLIPR assay; assay type: cell-based
[15] = target: T5, 5-hydroxytryptamine receptor 2A (Homo sapiens, UniProt P28223); experiment: Agonist activity at 5-HT2A in HEK293 cells at 10 uM incubated for 60 mins by FLIPR assay relative to control; assay type: functional, cell-based
[16] = target: T5, 5-hydroxytryptamine receptor 2A; experiment: Antagonist activity at 5-HT2A in HEK293 cells at 10 uM incubated for 60 mins by FLIPR assay relative to control; assay type: cell-based; design: scale not given: the % may be the effect or the level left; details: filed as antagonist
[17] = target: Sodium-dependent serotonin transporter (Rattus norvegicus) (UniProt P31652); experiment: Antagonist activity at rat cerebral cortex membrane SERT at 10 uM incubated for 10 mins in presence of [3H]5-HT relative to control; assay type: cell membranes; design: scale not given: the % may be the effect or the level left; details: filed as antagonist
Rattus norvegicus = experiment: Antidepressant activity against ACTH-induced treatment resistant depression in Sprague-Dawley rat model assessed as reduction in immobility time at 30 mg/kg, ip by forced swimming test; assay type: functional, organism-based

Chain of 5-hydroxytryptamine receptor 2A (Rattus norvegicus, UniProt P14842) (P14842 whole entry): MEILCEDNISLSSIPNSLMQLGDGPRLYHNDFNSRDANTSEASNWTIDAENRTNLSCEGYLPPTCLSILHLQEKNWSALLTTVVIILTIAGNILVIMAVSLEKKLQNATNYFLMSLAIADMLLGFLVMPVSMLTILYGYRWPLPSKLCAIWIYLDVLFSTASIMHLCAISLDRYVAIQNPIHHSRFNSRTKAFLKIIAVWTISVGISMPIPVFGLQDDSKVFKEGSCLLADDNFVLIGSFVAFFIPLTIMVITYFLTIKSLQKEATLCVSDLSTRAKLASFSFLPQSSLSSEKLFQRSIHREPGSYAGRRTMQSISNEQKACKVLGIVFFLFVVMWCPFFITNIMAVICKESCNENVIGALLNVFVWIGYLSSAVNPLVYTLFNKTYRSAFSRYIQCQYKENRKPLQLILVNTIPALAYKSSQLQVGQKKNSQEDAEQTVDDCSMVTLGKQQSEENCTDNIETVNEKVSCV
T1 sequence (Q63380 whole entry): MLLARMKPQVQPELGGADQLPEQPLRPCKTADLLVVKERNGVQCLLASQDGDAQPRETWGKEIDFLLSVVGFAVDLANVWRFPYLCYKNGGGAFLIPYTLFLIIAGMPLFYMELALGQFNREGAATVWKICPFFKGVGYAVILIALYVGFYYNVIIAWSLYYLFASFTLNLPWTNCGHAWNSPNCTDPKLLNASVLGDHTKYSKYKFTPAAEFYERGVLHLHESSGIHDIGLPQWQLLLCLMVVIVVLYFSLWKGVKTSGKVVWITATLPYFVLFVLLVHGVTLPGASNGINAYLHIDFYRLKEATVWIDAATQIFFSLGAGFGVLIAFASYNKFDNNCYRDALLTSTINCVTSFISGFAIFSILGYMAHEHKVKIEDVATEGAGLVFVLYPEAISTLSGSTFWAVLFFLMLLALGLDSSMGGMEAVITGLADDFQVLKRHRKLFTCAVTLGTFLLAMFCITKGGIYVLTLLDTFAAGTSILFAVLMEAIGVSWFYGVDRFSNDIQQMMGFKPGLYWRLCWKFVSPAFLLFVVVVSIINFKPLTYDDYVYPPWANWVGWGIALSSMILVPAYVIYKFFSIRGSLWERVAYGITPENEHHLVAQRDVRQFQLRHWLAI
Chain of Voltage-gated inwardly rectifying potassium channel KCNH2 (Q12809 whole entry): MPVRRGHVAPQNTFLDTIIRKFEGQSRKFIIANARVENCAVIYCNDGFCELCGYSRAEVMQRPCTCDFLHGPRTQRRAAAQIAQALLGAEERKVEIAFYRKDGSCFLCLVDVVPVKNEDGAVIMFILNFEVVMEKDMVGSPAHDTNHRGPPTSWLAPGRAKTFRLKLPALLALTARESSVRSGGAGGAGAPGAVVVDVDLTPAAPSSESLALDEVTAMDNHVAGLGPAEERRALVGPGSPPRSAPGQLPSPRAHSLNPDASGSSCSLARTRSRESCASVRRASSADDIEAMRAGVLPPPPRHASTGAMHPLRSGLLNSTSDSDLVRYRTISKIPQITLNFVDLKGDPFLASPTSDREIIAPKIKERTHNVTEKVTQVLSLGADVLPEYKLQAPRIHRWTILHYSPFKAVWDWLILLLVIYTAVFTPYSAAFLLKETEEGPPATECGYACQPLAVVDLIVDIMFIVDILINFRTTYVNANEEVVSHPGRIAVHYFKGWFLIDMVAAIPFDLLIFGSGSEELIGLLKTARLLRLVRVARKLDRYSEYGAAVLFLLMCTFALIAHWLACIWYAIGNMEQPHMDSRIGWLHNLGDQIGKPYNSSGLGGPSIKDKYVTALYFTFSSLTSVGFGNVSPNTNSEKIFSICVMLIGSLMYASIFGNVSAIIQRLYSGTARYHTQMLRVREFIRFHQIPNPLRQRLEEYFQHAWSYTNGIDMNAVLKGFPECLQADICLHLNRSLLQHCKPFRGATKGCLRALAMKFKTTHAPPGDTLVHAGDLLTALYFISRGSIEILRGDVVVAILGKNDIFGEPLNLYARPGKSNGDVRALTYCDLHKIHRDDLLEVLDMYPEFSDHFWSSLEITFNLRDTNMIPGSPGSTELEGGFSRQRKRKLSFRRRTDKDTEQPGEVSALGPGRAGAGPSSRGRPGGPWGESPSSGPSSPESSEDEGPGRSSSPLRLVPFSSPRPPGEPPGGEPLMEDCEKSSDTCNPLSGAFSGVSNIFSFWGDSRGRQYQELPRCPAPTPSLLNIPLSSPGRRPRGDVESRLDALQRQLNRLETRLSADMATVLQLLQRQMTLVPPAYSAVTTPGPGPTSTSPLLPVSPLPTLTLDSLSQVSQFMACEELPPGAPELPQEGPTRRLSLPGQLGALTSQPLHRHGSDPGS
Chain of Sodium-dependent serotonin transporter (P31652 whole entry): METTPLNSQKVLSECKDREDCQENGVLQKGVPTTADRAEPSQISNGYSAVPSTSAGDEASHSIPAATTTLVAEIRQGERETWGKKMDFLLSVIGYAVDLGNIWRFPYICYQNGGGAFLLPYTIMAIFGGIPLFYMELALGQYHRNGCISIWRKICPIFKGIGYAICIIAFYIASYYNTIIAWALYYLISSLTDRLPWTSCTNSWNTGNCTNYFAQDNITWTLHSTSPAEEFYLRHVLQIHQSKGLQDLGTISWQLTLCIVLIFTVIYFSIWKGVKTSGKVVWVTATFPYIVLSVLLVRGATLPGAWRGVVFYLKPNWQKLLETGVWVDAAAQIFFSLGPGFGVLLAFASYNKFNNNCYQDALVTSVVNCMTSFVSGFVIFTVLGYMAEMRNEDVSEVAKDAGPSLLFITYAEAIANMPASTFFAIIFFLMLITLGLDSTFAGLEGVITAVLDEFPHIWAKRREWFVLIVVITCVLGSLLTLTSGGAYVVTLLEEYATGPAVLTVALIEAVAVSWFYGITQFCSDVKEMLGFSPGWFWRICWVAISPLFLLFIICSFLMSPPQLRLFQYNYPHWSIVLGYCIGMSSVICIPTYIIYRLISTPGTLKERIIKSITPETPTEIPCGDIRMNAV
T5 sequence (P28223 whole entry): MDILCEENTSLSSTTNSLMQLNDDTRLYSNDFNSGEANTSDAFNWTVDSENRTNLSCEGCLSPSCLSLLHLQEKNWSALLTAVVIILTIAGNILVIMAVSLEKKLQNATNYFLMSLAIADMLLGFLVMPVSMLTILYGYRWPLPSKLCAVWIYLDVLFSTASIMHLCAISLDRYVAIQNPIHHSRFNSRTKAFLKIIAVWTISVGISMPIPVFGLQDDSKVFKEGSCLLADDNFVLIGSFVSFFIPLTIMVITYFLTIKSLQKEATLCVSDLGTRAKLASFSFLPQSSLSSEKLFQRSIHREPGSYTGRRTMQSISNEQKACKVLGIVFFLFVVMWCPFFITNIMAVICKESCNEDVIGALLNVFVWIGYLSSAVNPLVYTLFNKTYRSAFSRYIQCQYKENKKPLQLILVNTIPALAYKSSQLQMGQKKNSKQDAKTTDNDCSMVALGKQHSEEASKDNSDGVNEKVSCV
Chain of Sodium-dependent serotonin transporter (Rattus norvegicus) (P31652 whole entry): as the sequence (P31652 whole entry) above

SMILES	Ki [1] [nM]	Ki (Transporter [2]) [nM]	also measured
CNCCC(Oc1cccc2c1OCO2)c1cccc(F)c1 (centres undefined)	59.3	7.5	–
Cc1ccc(C(CCN(C)C)Oc2cccc3c2OCO3)cc1 (centres undefined)	69.7	195	–
COc1cccc(C(CCN(C)C)Oc2cccc3c2OCO3)c1 (centres undefined)	203	268	–
CNCCC(Oc1cccc2c1OCO2)c1ccc(C)cc1 (centres undefined)	17.4	48.8	–
CN(C)CCC(Oc1cccc2c1OCO2)c1ccccc1Cl (centres undefined)	29.7	19.5	–
CNCCC(Oc1cccc2c1OCO2)c1ccc(Cl)c(Cl)c1 (centres undefined)	43.6	15	–
CNCCC(Oc1cccc2c1OCO2)c1ccc2c(c1)OCO2 (centres undefined)	32.8	28.4	–
CN(C)CCC(Oc1cccc2c1OCO2)c1ccccc1F (centres undefined)	28	17.2	–
CNCC[C@H](Oc1cccc2ccccc12)c1cccs1 [DULOXETINE]	–	–	LD50 at 24 h [3]: 279 mg/kg; Ki [4]: 1240 nM; Ki [5]: 2470 nM; Ki [6]: 1010 nM; Ki at 60 min (histamine H1 receptor): 1270 nM; Activity (Mus musculus [7]): Dose-dependent-effect; minimal effective dose (Mus musculus [7]; po, read-out: MED): 16 mg/kg; Activity (Mus musculus [8]): Dose-dependent-effect; minimal effective dose (Mus musculus [8]; po, read-out: MED): 16 mg/kg; ED50 [9]: 30.9 mg/kg
CNCCC(Oc1ccc(C(F)(F)F)cc1)c1ccccc1 (centres undefined)	–	–	Activity (Mus musculus [10]): inactive
CNCCC(Oc1cccc2c1OCO2)c1cccc(C)c1 (centres undefined)	50.6	20.4	–
CNCCC(Oc1cccc2c1OCO2)c1ccc(Cl)cc1 (centres undefined)	77.3	14.8	–
CNCCC(Oc1cccc2c1OCO2)c1ccc(C(F)(F)F)cc1 (centres undefined)	74.1	31.1	–
CN(C)CC[C@H](Oc1cccc2c1OCO2)c1ccc(F)cc1	3.3	12.7	Ki [4]: 57.7 nM; Ki [5]: 71.2 nM; Ki [6]: 988 nM; Ki at 60 min (histamine H1 receptor): 823 nM; IC50 [11]: 907 nM
CN(C)CCC(Oc1cccc2c1OCO2)c1cccc(F)c1 (centres undefined)	15.1	3	Ki [4]: 89.3 nM; Ki [5]: 63.4 nM; Ki [6]: 1130 nM; Ki at 60 min (histamine H1 receptor): 549 nM; IC50 [11]: 940 nM
CCc1nn(CCCN2CCN(c3cccc(Cl)c3)CC2)c(=O)n1CCOc1ccccc1 [NEFAZODONE]	–	–	Ki (Transporter [12]): 555 nM
CNCCC(Oc1cccc2c1OCO2)c1ccc(F)c(F)c1 (centres undefined)	96.3	6.6	–
CNCCC(Oc1cccc2c1OCO2)c1ccccc1C (centres undefined)	41.2	13.9	–
CN(C)CCC(Oc1cccc2c1OCO2)c1ccc(F)cc1 (centres undefined)	4.2	2.8	Ki [4]: 35.3 nM; Ki [5]: 29.6 nM; Ki [6]: 1240 nM; Ki at 60 min (histamine H1 receptor): 937 nM; IC50 [11]: 1110 nM
CNCCC(Oc1cccc2c1OCO2)c1cccc(Cl)c1 (centres undefined)	112	4.8	–
CN(C)CCC(Oc1cccc2c1OCO2)c1ccc(Cl)c(Cl)c1 (centres undefined)	189	253	–
Cc1cccc(C(CCN(C)C)Oc2cccc3c2OCO3)c1 (centres undefined)	159	214	–
Cc1cc2c(cc1Cl)N(C(=O)Nc1ccc(Oc3cccnc3C)nc1)CC2 [SB-242084]	–	–	Activity [13]: 98.6%; IC50 [14]: 19.7 nM

SMILES	Ki [1] [nM]	Ki (Transporter [2]) [nM]	also measured
CNCCC(Oc1cccc2c1OCO2)c1ccc(OC)cc1 (centres undefined)	109	25.5	–
NCCc1c[nH]c2ccc(O)cc12	–	–	Activity [15]: 5.6%
CN(C)CCC(Oc1cccc2c1OCO2)c1cccc(Cl)c1 (centres undefined)	103	70.4	–
CN(C)CCC(Oc1cccc2c1OCO2)c1ccccc1 (centres undefined)	98.4	29.4	–
CNCCC(Oc1cccc2c1OCO2)c1ccccc1OC (centres undefined)	64.2	30.2	–
CN(C)CCC(Oc1cccc2c1OCO2)c1ccc(C(F)(F)F)cc1 (centres undefined)	182	124	–
CNCCC(Oc1cccc2c1OCO2)c1cccc(OC)c1 (centres undefined)	48.2	11.1	–
CN(C)CCC(Oc1cccc2c1OCO2)c1ccc(Cl)cc1 (centres undefined)	19.9	10.4	–
CNCCC(Oc1cccc2c1OCO2)c1ccc(OC)c(OC)c1 (centres undefined)	217	19.9	–
O=C(c1ccc(F)cc1)C1CCN(CCn2c(=O)[nH]c3ccccc3c2=O)CC1	–	–	Activity [16]: 98.3%
CN(C)CCC(Oc1cccc2c1OCO2)c1ccc2c(c1)OCO2 (centres undefined)	9.5	4.9	Ki [4]: 55.1 nM; Ki [5]: 105 nM; Ki [6]: 134 nM; Ki at 60 min (histamine H1 receptor): 426 nM; IC50 [11]: 371 nM
NCCC(Oc1cccc2c1OCO2)c1ccccc1 (centres undefined)	217	51	–
CN(C)CCC(Oc1cccc2c1OCO2)c1ccc(F)c(F)c1 (centres undefined)	237	139	–
CNCCC(Oc1cccc2c1OCO2)c1ccccc1F (centres undefined)	84.9	20.5	–
CNCCC(Oc1cccc2c1OCO2)c1ccccc1Cl (centres undefined)	57.4	26.6	–
COc1ccc(C(CCN(C)C)Oc2cccc3c2OCO3)cc1 (centres undefined)	189	218	–
CN(C)CCCC1(c2ccc(F)cc2)OCc2cc(C#N)ccc21 (centres undefined)	–	–	Activity [17]: 100%
CNCCC(Oc1cccc2c1OCO2)c1ccccc1 (centres undefined)	19.8	4.2	Ki [4]: 156 nM; Ki [5]: 134 nM; Ki [6]: 992 nM; Ki at 60 min (histamine H1 receptor): 669 nM; IC50 [11]: 818 nM
COc1ccc(C(CCN(C)C)Oc2cccc3c2OCO3)cc1OC (centres undefined)	245	222	–
CNCCC(Oc1cccc2c1OCO2)c1ccc(F)cc1 (centres undefined)	68.6	5.4	–
Fc1ccc([C@@H]2CCNC[C@H]2COc2ccc3c(c2)OCO3)cc1	–	–	Activity (Rattus norvegicus): inactive
Cc1ccccc1C(CCN(C)C)Oc1cccc2c1OCO2 (centres undefined)	157	247	–
COc1ccccc1C(CCN(C)C)Oc1cccc2c1OCO2 (centres undefined)	221	253	–
